From the METLIN SMRT retention time set (Domingo-Almenara et al. 2019)

Test: gradient 5% acetonitrile 3 min, to 50% in 2 min, to 85% in 15 min, held 3 min, 100 µL/min
Details: column: Zorbax Extend-C18 2.1 x 50 mm; eluents: water / acetonitrile, 0.1% formic acid
Procedure, shortened: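 The mobile phases were water and acetonitrile, each with 0.1% formic acid, pumped at 100 μL/min through a Zorbax Extend-C18 column (2.1 × 50 mm, 1.8 μm). Pure standards were injected as mixtures of ~100 molecules and detected by a quadrupole time-of-flight mass spectrometer in positive and negative ionization mode. Retention time came from computationally picked adduct peaks, each inspected by hand.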

| RP-LC retention time [s] | SMILES |
| --- | --- |
| 787 | Cc1cc(S(=O)(=O)N2CCCC(Cn3cnc4cccnc43)C2)ccc1F (configuration not stated) |
| 752 | Cc1ccc(Nc2nc(C(=O)N3CCN(S(C)(=O)=O)CC3)cs2)c(C)c1 |
| 587 | O=C(CN1C[C@H]2C[C@H](C1)[C@H]1CCCC(=O)N1C2)Nc1ccc2c(c1)OCCO2 |
| 598 | CN1CCCc2cc(C(CNC(=O)C(=O)NC3CCCCC3)N(C)C)ccc21 (configuration not stated) |
| 974 | COC(=O)c1cn(CC(=O)N2CCc3ccccc32)c2ccccc12 |
| 650 | COc1ccc(-c2nc(C)cc(C)c2CNS(=O)(=O)c2ccccc2F)cc1 |
| 727 | CCOC(=O)C1=C(C)NC2=C(C(=O)CCC2)C1c1ccc(OC)c(OC)c1OC (configuration not stated) |
| 699 | CCCn1c2ccccc2c2cnn(CC(=O)NCCN(C)Cc3ccccc3)c(=O)c21 |
| 1010 | CCN1CCCc2cc(C(=O)NC3CCCCC3)sc21 |
| 730 | COc1ccc(OC)c(CNC(=O)C2CCCN2S(=O)(=O)c2cc3c(cc2C)NC(=O)CO3)c1 (configuration not stated) |
| 754 | CCN(CC)CCCN(c1ccccc1)C1Cc2ccccc2C1 |
| 640 | CC(C)(C)CN(C(=O)c1ccc(F)cc1)c1ccncc1 |
| 663 | Cn1c(=O)c(C(=O)N2CCN(c3ccccn3)CC2)nn(-c2ccc(Cl)cc2)c1=O |
| 887 | Cc1cc(C)cc(C(=O)N2CCC(COc3ccc(C(=O)NC4CC4)cc3)CC2)c1 |
| 690 | O=C(Nc1cccn2ncnc12)c1cccs1 |
| 710 | COc1c(C(=O)NCCN2CCC(C)CC2)sc2ccc(Cl)cc12 |
| 715 | CC(C)(C)NC(=O)N1CCC(CNC(=O)CSc2ccc(F)cc2)CC1 |
| 797 | Cc1cc(N2CCN(S(=O)(=O)c3cccc(F)c3)CC2)nc(NC2CCCCC2)n1 |
| 702 | COc1cc(NC(=O)N2CCCN(c3ccc(=O)n(-c4ccc(F)cc4)n3)CC2)cc(OC)c1OC |

| RP-LC retention time [s] | SMILES |
| --- | --- |
| 761 | Cc1nn(C)c(C)c1S(=O)(=O)N1CCN(C(=O)C(C)Oc2ccccc2)CC1 (configuration not stated) |
| 884 | COCCCn1c(=O)c2ccccc2n(Cc2nc(-c3ccc(OC)cc3OC)no2)c1=O |
| 1110 | CC(C)(C)c1noc(-c2ccnc(-n3cnc(C(=O)NCC4CC4)c3)c2)n1 |
| 728 | Cc1ccc(N2CCN(C(=O)c3ccc(CN4CCN(C(C)C)C(=O)C4=O)cc3)CC2)cc1 |
| 672 | CN1CCN(C(=O)C2CCN(S(=O)(=O)c3cc(-c4noc(C5CCC5)n4)cs3)CC2)CC1 |
| 960 | Cc1ccc(C)c(NS(=O)(=O)c2ccc(-c3nnc(C4CCC4)o3)o2)c1 |
| 748 | Cc1ccc(-c2nccn3cc(C(=O)N4CCOCC4)nc23)cc1 |
| 679 | COc1ccc(NC(=O)Nc2ccc3nc(C)n(-c4ccccc4)c(=O)c3c2)cc1OC |
| 566 | O=C(Nc1ccccc1Br)N1CCc2nc[nH]c2C1 |
| 1230 | Cc1ccc(Sc2nccnc2N2CCCC(C(=O)Nc3ccc(F)c(C)c3)C2)cc1 (configuration not stated) |
| 668 | Cc1cccn2cc(C(=O)NCc3cc(F)cc(F)c3)nc12 |
| 882 | COc1ccc(-c2noc(CN3C(=O)COc4ccccc43)n2)cc1OC |
| 603 | CC(C)C1c2nccn2CCCN1C(=O)c1ccc2c(c1)OCO2 (configuration not stated) |
| 1140 | Cc1cc(-c2c(C)sc(C)c2S(=O)(=O)NCC(C)c2ccccc2)n[nH]1 (configuration not stated) |
| 589 | COc1ccc(NC(=O)CCNc2cnc3cnccn23)cc1F |
| 730 | CCc1cccc(NC(=O)Nc2ccc3nnc(C)n3c2)c1 |
| 610 | O=C(NCCCN1CCOCC1)c1ccc(CS(=O)Cc2cccc(Cl)c2)o1 (configuration not stated) |
| 663 | Cc1ccc(C)c(NS(=O)(=O)c2cc3n(c2)CCCNC3=O)c1 |

More lines, now with the values behind:

| SMILES | RP-LC retention time [s] |
| --- | --- |
| CC(C)C(=O)Nc1ccc(S(=O)(=O)NCC(c2ccsc2)N(C)C)cc1 (configuration not stated) | 565 |
| Cc1sc2ccn(CC(C)C)c(=O)c2c1C(=O)O | 863 |
| CCCCN1CCN(Cc2nc(-c3ccc(N4CCOCC4)nc3)no2)CC1 | 587 |
| CCOc1ccc(-n2ccn3c(CC(C)CC(=O)NC4CCCC4)nnc3c2=O)cc1 (configuration not stated) | 710 |
| O=S(=O)(Cc1ccccc1)N1CCC(OCCOc2cccnc2)CC1 | 665 |
| Cc1cc(OCC(=O)Nc2ccc(F)cc2Cl)nc(N2CCN(c3ccccc3)CC2)n1 | 976 |
| CCCOc1ccc(-c2csc(NC(=O)c3sc(C)nc3C)n2)cc1 | 1080 |
| Cc1ccc(C2Cn3cnc(C(=O)N4CCC(C(=O)NCCCc5ccccc5)CC4)c3CO2)cc1 (configuration not stated) | 853 |
| Cc1ccc(-c2noc(CN3N=NC4C(=O)N(c5ccc(Br)cc5)C(=O)C43)n2)cc1C (configuration not stated) | 1130 |
| CNC(=O)N1CCCN(S(C)(=O)=O)CC1 | 533 |
| COc1ccc(-c2cc3nn(CC(=O)Nc4cccc(Cl)c4)c(=O)n3c(C)n2)cc1 | 979 |
| CCOC(=O)C1CCN([C@H]2CS(=O)(=O)C[C@@H]2S(=O)(=O)c2ccccc2)CC1 | 826 |
| CCCn1ncc(N2CCC(C(=O)Nc3ccc(OC)c(OC)c3)CC2)cc1=O | 693 |
| COc1ccc(Cl)cc1NC(=O)NCCCn1c(C(F)(F)F)nc2cccnc21 | 890 |
| Cc1ccc(C)c(N2CCN(C(=O)c3cc(C)n4nccc4n3)CC2)c1 | 986 |
| Cc1ccc(NC(=O)N2CC(c3nc(C(C)C)nn3C)C2)cc1 | 689 |
| COc1ccc(-n2ccc(=O)c(-c3nc(-c4ccc(Cl)c(F)c4)no3)n2)cc1 | 993 |
| O=C(C1CCCN(c2ncnc3c2nc2n3CCCCC2)C1)N1CCCc2ccccc21 (configuration not stated) | 888 |
| CCCc1nc(-c2ccnc(N3CCOCC3)c2)no1 | 749 |
| COc1ccc(-c2noc(CC(=O)NCc3ccccc3)c2-c2ccc(OC)cc2)cc1 | 924 |
| O=C(NCc1ccc2c(c1)OCO2)c1csc(NS(=O)(=O)c2cccs2)n1 | 721 |
| Cc1cccc(-c2noc(CN3C(=O)COc4ccccc43)n2)c1 | 1030 |
| O=C(Cc1cc(-c2ccc(Cl)cc2)on1)NCCC1=CCCCC1 | 584 |
| Cc1nnc(-c2ccc3ccn(CC(=O)Nc4ccc(F)c(Cl)c4)c3c2)o1 | 861 |
| CSc1ccc(-c2nc3ccc(Cl)cn3c2Nc2ccc(C)cc2)cc1 | 954 |
| COc1ccc(NC(=O)C2CC(=O)N(CCc3c[nH]c4ccc(OC)cc34)C2)cc1 (configuration not stated) | 728 |
| CCS(=O)(=O)c1ccc2c(c1)N(Cc1nc(-c3cccc(Br)c3)no1)C(=O)CO2 | 988 |
| COc1cccc(-c2nc3cnccn3c2NCCC(=O)NC2CCCC2)c1 | 675 |
| COc1ccc(-c2ncc3c(n2)CCN(S(=O)(=O)c2ccc(F)c(Cl)c2)C3)cc1 | 1130 |
| CCCN(CC1CC1)C(=O)[C@@H]1COCC(=O)N1Cc1ccccc1 | 818 |
